# Columns and labels:
# [1] = LogP by HPLC on reversed phase columns (EEC directive 79/831 Annex V.A8); type: physicochemical; conditions: method [a]: LC-UV, acidic range, 0.1% formic acid in water and acetonitrile, linear gradient 10% to 95% acetonitrile
# Description: [table] If more than one LogP value is available within the same method, all the values are given and separated by “+”. Calibration was done with straight-chain alkan2-ones (with 3 to 16 carbon atoms) with known LogP values (measurement of LogP values using retention times with linear interpolation between successive alkanones). Lambda-max-values were determined using UV-spectra from 200 nm to 400 nm and the peak values of the chromatographic signals.
# [2] = system: Colletotrichum lindemuthianum; experiment: Colletotrichum lindemuthianum in vitro cell test; type: cell-based; conditions: 144 h, liquid culture with spores, 6 days incubation, read-out: efficacy (inhibition of fungal growth); for inhibition at 4 ppm: 4 ppm of active ingredient; for inhibition at 20 ppm: 20 ppm of active ingredient
# Description: Example E: Colletotrichum lindemuthianum In Vitro Cell Test • Solvent: DMSO • Culture medium: 14.6 g anhydrous D-glucose (VWR), 7.1 g Mycological Peptone (Oxoid), 1.4 g granulated Yeast Extract (Merck), QSP 1 liter • Inoculum: spores suspension Fungicides were solubilized in DMSO and the solution used to prepare the required range of concentrations. The final concentration of DMSO used in the assay was ≤[…]1%. A spore suspension of C. lindemuthianum was prepared and diluted to the desired spore density. Fungicides were evaluated for their ability to inhibit spores germination and mycelium growth in liquid culture assay. The compounds were added in the desired concentration to the culture medium with spores. After 6 days incubation, fungi-toxicity of compounds was determined by spectrometric measurement of mycelium growth. Inhibition of fungal growth was determined by comparing the absorbance values in wells containing the fungicides with the absorbance in control wells without fungicides.
SMILES,chromatographic logP ([1]; reversed phase HPLC column),inhibition at 4 ppm [2],inhibition at 20 ppm [2],LogP [1]
"FC(F)(F)c1nc(-c2ccc(Nc3ncccn3)cc2)no1 [Compound I-05, N-{4-[5-(trifluoromethyl)-1,2,4-oxadiazol-3-yl]phenyl}pyrimidin-2-amine]",3.5,80 to 89%,90 to 100%,
"Fc1ccccc1Nc1ncc(-c2noc(C(F)(F)F)n2)cn1 [Compound I-04, N-(2-Fluorophenyl)-5-[5-(trifluoromethyl)-1,2,4-oxadiazol-3-yl]pyrimidin-2-amine]",,80 to 89%,80 to 89%,
"FC(F)(F)c1nc(-c2cnc(N[C@@H]3CCOc4ccccc43)nc2)no1 [Compound I-01, N-[(4R)-3,4-dihydro-2H-chromen-4-yl]-5-[5-(trifluoromethyl)-1,2,4-oxadiazol-3-yl]pyrimidin-2-amine]",,70 to 79%,80 to 89%,
FC(F)(F)c1nc(-c2cnc(Nc3cccc4c3CCC4)nc2)no1 [Compound I-60],,,,4.44^[a]
CC(=O)N1CCC(Nc2ncc(-c3noc(C(F)(F)Cl)n3)cn2)CC1 [Compound I-20],,,,2.32^[a]
FC(F)(Cl)c1nc(-c2cnc(Nc3ccccc3Cl)nc2)no1 [Compound I-77],,,,4.46^[a]

# Source: US11266147B2, “Fungicidal oxadiazoles” (Bayer Aktiengesellschaft, priority 2017, dated 2022)
